# Results published in US7842808B2, “Anti-migraine spirocycles” (Bristol-Myers Squibb Company, priority 2002, dated 2010).
# Target: T1, CGRP receptor (SK-N-MC cell membranes) (Homo sapiens, UniProt O60894+Q16602)
# T1 construct: endogenous in cells; host or cells: SK-N-MC cells (membrane homogenate)
# Assay: CGRP Binding Assay ([125I]-CGRP radioligand binding, SK-N-MC homogenate)
# Settings: not given
# Method: Tissue Culture. SK-N-MC cells were grown at 37° C. in 5% CO2 as a monolayer in medium consisting of MEM with Earle's salts and L-glutamine (Gibco) supplemented with 10% fetal bovine serum (Gibco).
# Cell Pellets. […] The cells were transferred from plates to polypropylene tubes (16×100 mm) and homogenized using a polytron. Homogenates were centrifuged at 32,000×g for 30 min. The pellets were resuspended in cold hypotonic lysis buffer with 0.1% mammalian protease inhibitor cocktail (Sigma) and assayed for protein concentration. The SK-N-MC homogenate was then aliquoted and stored at −80° C. until needed.
# Radioligand Binding Assay. The compounds of invention were solubilized and carried through serial dilutions using 100% DMSO. Aliquots from the compound serial dilutions were further diluted 25 fold into assay buffer (50 mM Tris-Cl pH 7.5, 5 mM MgCl2, 0.005% Triton X-100) and transferred (volume 50 μl) into 96 well assay plates. […] SK-N-MC pellets were thawed, diluted in assay buffer with fresh 0.1% mammalian protease inhibitor cocktail (Sigma), and homogenized again. SK-N-MC homogenate (5 μg/well) was added in a volume of 100 μl. The assay plates were then incubated at room temperature for 2 h. Assays were stopped by addition of excess cold wash buffer (20 mM Tris-Cl pH 7.5, 0.1% BSA) immediately followed by filtration over glass fiber filters (Whatman GF/B) previously soaked in 0.5% PEI. Non-specific binding was defined with 1 μM beta-CGRP. Protein bound radioactivity was determined using a gamma or scintillation counter.
# T1 sequence (Q16602 23-461): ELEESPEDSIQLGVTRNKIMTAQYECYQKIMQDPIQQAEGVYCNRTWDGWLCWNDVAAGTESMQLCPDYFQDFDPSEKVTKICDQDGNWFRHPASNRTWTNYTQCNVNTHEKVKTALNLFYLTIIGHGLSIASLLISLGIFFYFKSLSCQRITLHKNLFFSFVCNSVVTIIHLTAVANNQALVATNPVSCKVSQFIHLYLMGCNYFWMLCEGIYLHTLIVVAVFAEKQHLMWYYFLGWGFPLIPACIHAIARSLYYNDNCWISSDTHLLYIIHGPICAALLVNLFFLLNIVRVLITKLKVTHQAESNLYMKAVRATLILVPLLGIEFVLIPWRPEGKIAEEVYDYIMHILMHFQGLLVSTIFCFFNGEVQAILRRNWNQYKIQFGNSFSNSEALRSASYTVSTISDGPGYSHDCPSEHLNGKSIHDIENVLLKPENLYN
# T1 sequence (O60894 27-148): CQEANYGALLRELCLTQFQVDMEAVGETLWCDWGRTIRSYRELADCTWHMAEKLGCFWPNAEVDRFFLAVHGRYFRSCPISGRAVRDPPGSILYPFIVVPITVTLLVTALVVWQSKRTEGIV
row,SMILES,IC50 [nM]
1,"O=C1Nc2ccccc2C2(CCN(C(=O)CC(Cc3ccc4[nH]ncc4c3)C(=O)N3CCC4(CC3)OCCO4)CC2)O1 (racemic) [Example 80, (±)-1-(1,4-Dioxa-8-aza-spiro[4.5]dec-8-yl)-2-(1H-indazol-5-ylmethyl)-4-[1′,2′-dihydro-2′-oxospiro-[4H-3′,1-benzoxazine-4,4′-piperidinyl]-butane-1,4-dione]",100 to 1000

# Same assay, conditions: displacement of [125I]-CGRP, SK-N-MC homogenate; read-out: CGRP binding IC50
row,SMILES,IC50 [nM]
1,"Cc1cc(CC(NC(=O)N2CCC(N3Cc4ccccc4NC3=O)CC2)C(=O)OC2CCN(C)CC2)cc2cn[nH]c12 (stereo not drawn) [Example 41c, 3-(7-Methyl-1H-indazol-5-yl)-2-{[4-(2-oxo-1,4-dihydro-2H-quinazolin-3-yl)-piperidine-1-carbonyl]-amino}-propionic acid 1-methyl-piperidin-4-yl ester]",< 10
2,"COC(=O)C(Cc1cc(Cl)c2[nH]ncc2c1)NC(=O)N1CCC(N2Cc3ccccc3NC2=O)CC1 (racemic) [Example 42, (±)-3-(7-Chloro-1H-indazol-5-yl)-2-{[4-(2-oxo-1,4-dihydro-2H-quinazolin-3-yl)-piperidine-1-carbonyl]-amino}-propionic acid methyl ester]",100 to 1000
3,CC(C)c1ccc(NC(=O)N[C@@H](CC(=O)N2CCC(N3Cc4ccccc4NC3=O)CC2)C(=O)N2CCC(N3CCCCC3)CC2)cc1 [Example 162],100 to 1000
4,"CC(C)(C)OC(=O)N[C@@H](CC(=O)N1CCC(N2Cc3ccccc3NC2=O)CC1)C(=O)N1CCC(N2CCCCC2)CC1 [Example 85, (L)-{1-([1,4′]Bipiperidinyl-1′-carbonyl)-3-oxo-3-[4-(2-oxo-1,4-dihydro-2H-quinazolin-3-yl)-piperidin-1-yl]-propyl}-carbamic acid tert-butyl ester]",100 to 1000
5,O=C(Nc1cc(Cl)ccc1Cl)N[C@@H](CC(=O)N1CCC(N2Cc3ccccc3NC2=O)CC1)C(=O)N1CCC(N2CCCCC2)CC1 [Example 173],100 to 1000
6,O=C(COc1ccc(Cl)cc1)N[C@@H](CC(=O)N1CCC(N2Cc3ccccc3NC2=O)CC1)C(=O)N1CCC(N2CCCCC2)CC1 [Example 112],100 to 1000
7,Cc1cccc(NC(=O)N[C@@H](CC(=O)N2CCC(N3Cc4ccccc4NC3=O)CC2)C(=O)N2CCC(N3CCCCC3)CC2)c1C [Example 151],100 to 1000
8,"COc1ccc(CC(NC(=O)N2CCC(N3Cc4ccccc4NC3=O)CC2)C(=O)N2CCC(N3CCCCC3)CC2)cn1 (racemic) [Example 57, (±)-4-(2-Oxo-1,4-dihydro-2H-quinazolin-3-yl)-piperidine-1-carboxylic acid[2-[1,4′]bipiperidinyl-1′-yl-1-(6-methoxy-pyridin-3-ylmethyl)-2-oxo-ethyl]-amide]",100 to 1000
9,O=C(N[C@@H](CC(=O)N1CCC(N2Cc3ccccc3NC2=O)CC1)C(=O)N1CCC(N2CCCCC2)CC1)c1cccc(F)c1 [Example 105],100 to 1000
10,"O=C(C[C@H](Nc1ccncn1)C(=O)N1CCC(N2CCCCC2)CC1)N1CCC(N2Cc3ccccc3NC2=O)CC1 [Example 96, (L)-1-[1,4′]Bipiperidinyl-1′-yl-4-[4-(2-oxo-1,4-dihydro-2H-quinazolin-3-yl)-piperidin-1-yl]-2-(pyrimidin-4-ylamino)-butane-1,4-dione]",> 1000
11,O=C(Nc1cc(C(F)(F)F)ccc1Cl)N[C@@H](CC(=O)N1CCC(N2Cc3ccccc3NC2=O)CC1)C(=O)N1CCC(N2CCCCC2)CC1 [Example 167],100 to 1000
12,O=C(N[C@@H](CC(=O)N1CCC(N2Cc3ccccc3NC2=O)CC1)C(=O)N1CCC(N2CCCCC2)CC1)c1cccc([N+](=O)[O-])c1 [Example 113],100 to 1000
13,O=C(Nc1cccc(Br)c1)N[C@@H](CC(=O)N1CCC(N2Cc3ccccc3NC2=O)CC1)C(=O)N1CCC(N2CCCCC2)CC1 [Example 176],10 to 100
14,O=C(Nc1ccccc1F)N[C@@H](CC(=O)N1CCC(N2Cc3ccccc3NC2=O)CC1)C(=O)N1CCC(N2CCCCC2)CC1 [Example 171],10 to 100
